Measurements published in paper PMC3958483, “Fine Specificity and Molecular Competition in SLAM Family Receptor Signalling” (PLoS ONE, 2014).
One block for each molecule: values may come before it. Non-standard residues stand in square brackets, D forms with d. Residues, ends and D or L forms follow the SMILES beside them. *: point of attachment. Biotin = O=C1N[C@H]2[C@H](CS[C@H]2CCCCC(=O)*)N1; pY = N[C@@H](Cc1ccc(OP(=O)(O)O)cc1)C(=O)O

What was measured:
SHP-2 (SH2-SH2) = molecular target: T1, SHP-2 (SH2-SH2) (Homo sapiens, UniProt Q06124); assay: SPR binding of SHP-2 tandem (N+C) SH2 domains to immobilised phosphopeptides; conditions: 37°C, SHP2 N+C SH2, equilibrium binding fit shown in Figure 6D
T1 construct: OPPF catalogue number 3911; aa 2–219, EC = 23,045 M^−1 cm^−1; His-tag; host or cells: E. coli BL21(DE3)pLysS
T1 sequence (Q06124 2-219): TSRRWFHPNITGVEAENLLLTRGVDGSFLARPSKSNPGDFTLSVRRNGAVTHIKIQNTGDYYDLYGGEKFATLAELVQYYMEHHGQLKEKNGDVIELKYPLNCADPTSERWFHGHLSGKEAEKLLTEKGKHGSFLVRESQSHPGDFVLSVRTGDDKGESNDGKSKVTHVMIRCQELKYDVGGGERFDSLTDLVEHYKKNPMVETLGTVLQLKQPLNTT
From the text: Biotinylated EAT-2 was produced by expression of full length human EAT-2 with a C-terminal BirA tag ([…]) in the E coli expression vector pTrcHisA. Constructs encoding the 6xHis-tagged tandem SH2 domains plus the SH3 domains of PLCγ1 (Swiss-Prot: P19174, aa 536–863) and PLCγ2 (Swiss-Prot: P16885, aa 519–838) were generated in pTrcHisA (5′ joining sequence with BglII site underlined: gag atc tcc translates as EIS). The molecular weight (MW) and theoretical extinction coefficients (EC) of recombinant PLCγ1 and PLCγ2 SH2-SH2-SH3 domains were PLCγ1; MW = 42531, EC = 63,830 M^−1 cm^−1 and PLCγ2; MW = 42415, EC = 67,270 M^−1 cm^−1.
Measurements of protein-protein affinity were performed on BIAcore 3000 and T200 systems using CM5 or biotin capture chips (GE Healthcare Ltd, UK). Streptavidin was coupled to CM5 sensor chips using standard NHS/EDC chemical linkage, followed by immobilization of biotinylated peptides. […] Equilibrium binding coefficients and dissociation and association rates were calculated using BIAevaluation and/or GraphPad Prism 5.4 software.
Binding of inhibitory tyrosine phosphatases through their SH2 domains to ITIMs is enhanced by phosphorylation of two tyrosine motifs which are appropriately spaced. […] We measured binding of SHP-2 tandem SH2 domains (recombinant SHP-1 SH2 domains were unstable in solution) to tandem ITSMs in CD244 (Figure 6B and Table 4). […]

[1] = Pull-down with EAT-2 Y127 phosphopeptide from NK92 lysates, LC-MS/MS; assay type: binding, human; conditions: NK92 cell lysates
Protocol: (§1) For pull-down of associated proteins, streptavidin Sepharose (GE Healthcare) was pre-coated with saturating amounts of peptide or EAT-2. NK92 cells (4×10^8) were treated with 500 μM pervanadate for 15 minutes, then lysed in PBS, 1% Triton X-100, 1 mM sodium orthovanadate in the presence of mammalian protease inhibitor solution (Sigma). Lysates were pre-cleared by centrifugation, followed by incubation with streptavidin Sepharose. Peptide or EAT-2-coated streptavidin beads were incubated with NK92 lysates for 2 hours at 4°C with rotation. Beads were washed once with 15 ml ice cold PBS/1% (v/v) Triton X-100. Bound protein was eluted using 100 mM glycine-HCl pH 2.5.
Protein samples were prepared for mass spectrometry as described previously. Briefly, eluted proteins were spun onto the membranes of Vivacon 500 filters (10,000 MWCO – Sartorius). Membranes were washed once with PBS then proteins were denatured with 8 M urea, reduced with 10 mM DTT in 25 mM ammonium bicarbonate buffer, followed by alkylation with 50 mM iodoacetamide. Proteins were then digested overnight with trypsin. Tryptic peptides were then eluted from the membrane and analyzed on an Ultimate 3000 HPLC-coupled Orbitrap XL mass spectrometer. […] Raw data files were converted to mzXML format using ReADW (v. 4.2.1) and submitted to the Central Proteomics Facilities Pipeline for database comparison and peptide identification. […]

[2] = Pull-down with phosphorylated CD244 ITSM1 from NK cell lysates, LC-MS/MS; assay type: binding; conditions: human NK cell lysates; compared with control phosphopeptide SHIP-1 Y865
Protocol: as §1
Protein samples were prepared for mass spectrometry as described previously. Briefly, eluted proteins were spun onto the membranes of Vivacon 500 filters (10,000 MWCO – Sartorius). Membranes were washed once with PBS then proteins were denatured with 8 M urea, reduced with 10 mM DTT in 25 mM ammonium bicarbonate buffer, followed by alkylation with 50 mM iodoacetamide. Proteins were then digested overnight with trypsin. Tryptic peptides were then eluted from the membrane and analyzed on an Ultimate 3000 HPLC-coupled Orbitrap XL mass spectrometer. Proteins were identified by liquid chromatography-coupled tandem mass-spectrometry (LC-MS/MS). Raw data files were converted to mzXML format using ReADW (v. 4.2.1) and submitted to the Central Proteomics Facilities Pipeline for database comparison and peptide identification. Searching against the International Protein Index (IPI) human protein sequence database for protein identification, protein and peptide hits were statistically validated by applying a 1% false discovery rate (FDR) by searching against a concatenated target/decoy database. Datasets were searched with variable peptide modifications for phosphotyrosine, phosphoserine, phosphothreonine, oxidation of methionine and deamination.
Protein identification data were exported into ProteinCenter (v3.8.3013 – Thermo Fisher) for filtering and annotation. Results were filtered to remove any proteins with less than 3 unique peptides, less than 10 percent sequence coverage, or median protein probability scores less than 0.5. To establish sample specificity, any protein with at least 10-fold greater sequence coverage in one sample compared with the other was considered to be specific for that sample.
Similarly, differences in specificity of inhibitory SH2 domain containing proteins for ITSMs are relevant to understanding mechanisms of inhibition by ITSMs. We focused on CD244 ITSMs to establish general paradigms.

NK92 cells = assay: IFNγ production by NK92 cells; assay type: cell-based, human; conditions: TJW, unpublished

Kd (SHP-2 (SH2-SH2)): 2.4 µM
Molecule: CC[C@H](C)[C@H](NC(=O)[C@H](CCSC)NC(=O)[C@H](CO)NC(=O)[C@H](Cc1ccc(OP(=O)(O)O)cc1)NC(=O)[C@@H](NC(=O)[C@@H](NC(=O)[C@H](CO)NC(=O)CNC(=O)CNC(=O)CNC(=O)[C@@H]1CCCN1C(=O)[C@H](Cc1ccccc1)NC(=O)[C@@H](NC(=O)[C@H](CCC(N)=O)NC(=O)[C@H](CCC(=O)O)NC(=O)[C@H](CCC(N)=O)NC(=O)[C@H](CCC(=O)O)NC(=O)[C@H](Cc1c[nH]cn1)NC(=O)[C@H](CC(N)=O)NC(=O)[C@H](CCCNC(=N)N)NC(=O)[C@H](CCCNC(=N)N)NC(=O)[C@@H](NC(=O)[C@H](CCCCN)NC(=O)[C@H](CC(C)C)NC(=O)[C@H](CC(=O)O)NC(=O)[C@H](CCCCN)NC(=O)[C@@H](NC(=O)[C@H](CC(=O)O)NC(=O)[C@H](CCC(=O)O)NC(=O)[C@H](Cc1ccc(OP(=O)(O)O)cc1)NC(=O)[C@@H](NC(=O)[C@@H](NC(=O)[C@H](CC(C)C)NC(=O)[C@H](Cc1ccccc1)NC(=O)[C@H](CCC(=O)O)NC(=O)CCCC[C@@H]1SC[C@@H]2NC(=O)N[C@@H]21)[C@@H](C)O)[C@@H](C)CC)C(C)C)[C@@H](C)O)[C@@H](C)O)[C@@H](C)O)[C@@H](C)CC)C(=O)N[C@@H](CCC(N)=O)C(=O)N[C@@H](CO)C(=O)O [CD244 ITSM1+ITSM2] (Biotin-EFLTI[pY]EDVKDLKTRRNHEQEQTFPGGGSTI[pY]SMIQS-OH)

Molecule: Fyn: Src-family kinase
pull-down by EAT-2 Y127 [1]: Notably absent from this list

Molecule: PLCγ1: phospholipase C gamma-1
pull-down by CD244 ITSM1 [2]: pulled down by the ITSM peptide
effect on IFNγ production by NK92 cells (NK92 cells): inhibitory
